Test results taken from patent publication US20260042769A1, “TRIARYL AGONISTS OF ALPHA-2 ADRENERGIC RECEPTORS” (ALCEPTOR THERAPEUTICS, INC., priority 2023, published 2026).
Read-outs that look alike come from different tables or passages of the source.

Molecular target: T1, human ADRA2B receptor (Homo sapiens, UniProt P18089)
T1 construct: expressed in transfected cells
T1 sequence (P18089 1-450): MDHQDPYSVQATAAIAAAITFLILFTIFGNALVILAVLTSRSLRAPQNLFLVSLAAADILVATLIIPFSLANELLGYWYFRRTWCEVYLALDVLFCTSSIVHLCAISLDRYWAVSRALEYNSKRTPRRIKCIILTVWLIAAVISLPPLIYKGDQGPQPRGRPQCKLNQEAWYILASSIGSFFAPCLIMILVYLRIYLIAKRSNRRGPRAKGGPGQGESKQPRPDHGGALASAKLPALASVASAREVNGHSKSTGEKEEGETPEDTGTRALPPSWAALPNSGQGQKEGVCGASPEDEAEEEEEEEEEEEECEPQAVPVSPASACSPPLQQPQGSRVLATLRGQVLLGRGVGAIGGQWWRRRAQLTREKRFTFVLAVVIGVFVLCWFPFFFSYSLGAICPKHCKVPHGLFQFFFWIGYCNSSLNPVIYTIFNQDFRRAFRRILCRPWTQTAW
Experiment: ADRA2B arrestin agonist assay
Assay type: cell-based
Conditions: read-out: Beta-Arrestin - Human Alpha2B EC50
Outline: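 CHO-K1 cells stably expressing human ADRA2B, thawed from frozen stock and plated overnight, were treated with agonist for 2 h at 37 °C. Arrestin recruitment detected by luminescence after 2 h with detection reagents at room temperature.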

[1] = CHO-K1 cells stably expressing human ADRA2B

| Structure (SMILES) | EC50 [1] [nM] | EC50 [nM] |
| --- | --- | --- |
| CNC(=O)c1ccc(CC(c2c[nH]cn2)c2cccc(C)c2C)cn1 (stereo not shown) [Compound 302, N-methyl-5-[2-(4-imidazolyl)-2-(2,3-xylyl)ethyl]-2-pyridinecarboxamide] | < 10 |  |
| COc1cc(CC(c2c[nH]cn2)c2cccc(C)c2C)nc(OC)n1 (stereo not shown) [Compound 307, 4-[2-(4-imidazolyl)-2-(2,3-xylyl)ethyl]-2,6-dimethoxypyrimidine] | < 10 |  |
| Cc1cccc(C(Cc2ccc(C(=O)N(C)C)nc2)c2c[nH]cn2)c1C (stereo not shown) [Compound 311, N,N-dimethyl-5-[2-(4-imidazolyl)-2-(2,3-xylyl)ethyl]-2-pyridinecarboxamide] | < 10 |  |
| COc1cc(CC(c2c[nH]cn2)c2cccc3c2OCC3)ccn1 (stereo not shown) [Compound 314, 4-[1-(2,3-dihydro-1-benzofuran-7-yl)-2-(2-methoxy-4-pyridyl)ethyl]imidazole] | < 10 |  |
| Cc1cc(CC(c2c[nH]cn2)c2cccc(C)c2C)c(F)cn1 (stereo not shown) [Compound 315, 4-[2-(5-fluoro-2-methyl-4-pyridyl)-1-(2,3-xylyl)ethyl]imidazole] | < 10 |  |
| Cc1cc(CC(c2c[nH]cn2)c2cccc(C)c2C)nc(C)n1 (stereo not shown) [Compound 316, 4-[2-(4-imidazolyl)-2-(2,3-xylyl)ethyl]-2,6-dimethylpyrimidine] | < 10 |  |
| Cc1cccc([C@H](Cc2ccncc2)c2c[nH]cn2)c1C [Compound 319, 4-[(S)-2-(4-pyridyl)-1-(2,3-xylyl)ethyl]imidazole] |  | < 10 |
| Cc1cccc([C@@H](Cc2ccncc2)c2c[nH]cn2)c1C [Compound 320, 4-[(R)-2-(4-pyridyl)-1-(2,3-xylyl)ethyl]imidazole] |  | > 500 |
| Cc1cccc(C(Cc2ccnc(F)c2)c2c[nH]cn2)c1F (stereo not shown) [Compound 321, 4-[2-(2-fluoro-4-pyridyl)-1-(2-fluoro-3-tolyl)ethyl]imidazole] | < 10 |  |

Second part, led by results:

| EC50 [1] [nM] | Structure (SMILES) | EC50 [nM] |
| --- | --- | --- |
| 10 to 50 | Cn1ncc2c(C(Cc3cccc(CF)n3)c3c[nH]cn3)cccc21 (stereo not shown) [Compound 303, 4-{2-[6-(fluoromethyl)-2-pyridyl]-1-(4-imidazolyl)ethyl}-1-methyl-1H-indazole] |  |
| < 10 | Cc1cccc([C@@H](Cc2cccc(C(C)(C)O)n2)c2c[nH]cn2)c1C [Compound 304, 2-{6-[(R)-2-(4-imidazolyl) 2-(2,3-xylyl)ethyl]-2-pyridyl}-2-propanol] |  |
| > 500 | Cc1cccc([C@H](Cc2cccc(C(C)(C)O)n2)c2c[nH]cn2)c1C [Compound 305, 2-{6-[(S)-2-(4-imidazolyl) 2-(2,3-xylyl)ethyl]-2-pyridyl}-2-propanol] |  |
| < 10 | COCc1nccc(CC(c2c[nH]cn2)c2cccc3c2OCC3)n1 (stereo not shown) [Compound 306, 4-[2-(2,3-dihydro-1-benzofuran-7-yl)-2-(4-imidazolyl)ethyl]-2-(methoxymethyl)pyrimidine] |  |
| 10 to 50 | Cn1nc2ccccc2c1CC(c1c[nH]cn1)c1cccc2c1OCC2 (stereo not shown) [Compound 308, 3-[2-(2,3-dihydro-1-benzofuran-7-yl)-2-(4-imidazolyl)ethyl]-2-methyl-2H-indazole] |  |
| < 10 | COc1nc(CC(c2c[nH]cn2)c2cccc3c2OCC3)ccc1F (stereo not shown) [Compound 313, 4-[1-(2,3-dihydro-1-benzofuran-7-yl)-2-(5-fluoro-6-methoxy-2-pyridyl)ethyl]imidazole] |  |
| < 10 | Cc1cccc(C(Cc2nc(CO)ccc2F)c2c[nH]cn2)c1C (stereo not shown) [Compound 317, {5-fluoro-6-[2-(4-imidazolyl)-2-(2,3-xylyl)ethyl]-2-pyridyl}methanol] |  |
| < 10 | Cc1cccc(C(Cc2ccc(F)c(CO)n2)c2c[nH]cn2)c1C (stereo not shown) [Compound 318, {3-fluoro-6-[2-(4-imidazolyl)-2-(2,3-xylyl)ethyl]-2-pyridyl}methanol] |  |
| 10 to 50 | Cc1cccc(C(Cc2cncc(F)c2)c2c[nH]cn2)c1F (stereo not shown) [Compound 322, 4-[2-(5-fluoro-3-pyridyl)-1-(2-fluoro-3-tolyl)ethyl]imidazole] |  |
| 50 to 500 | Cc1cccc(C(Cc2ccc(F)nc2)c2c[nH]cn2)c1F (stereo not shown) [Compound 323, 4-[2-(6-fluoro-3-pyridyl)-1-(2-fluoro-3-tolyl)ethyl]imidazole] |  |
